According to PMC5097879 (European journal of medicinal chemistry, 2016):
Where a name gives a salt, the structure may show the parent alone. Read-outs that look alike come from different tables or passages of the source.

What was measured:
[1] = test system: high sensitivity (HS) α4β2-nAChR; conditions: oocytes expressing human nAChRs; ref [15], [16]; cited from earlier work
[2] = target: α7 subtype; conditions: read-out: Ki α7 subtype; ref [15], [16]; cited from earlier work
[3] = target: T1, HS α4β2-nAChR (Homo sapiens, UniProt P17787+P43681); assay: 86Rb+ ion efflux assay, efficacy at HS α4β2; type: cell-based; conditions: relative to full agonist carbamylcholine; ± SEM
[4] = test system: mice; assay: Mouse forced swim test; type: in vivo; conditions: BALB/cJ mice, 6-min test, P < 0.05
[5] = test system: mice; assay: SmartCube behavioral platform; type: in vivo, mouse; conditions: 15 min preinjection; for SmartCube behavioral signature, extent of effect: 5 and 10 mg/kg i.p.; for SmartCube behavioral signature, 10 mg/kg compared to 5 mg/kg: i.p.
[6] = test system: β2-nAChRs; assay: [3H]epibatidine binding competition, β2-nAChRs overall; design: species or system rat; conditions: versus parent compound 8
[7] = ref [12]; cited from earlier work
[8] = target: T1, HS α4β2-nAChR; conditions: relative to carbamylcholine; ref [8], [9]; cited from earlier work
[9] = target: human α4β2-nAChRs (mixture of HS and LS) (Homo sapiens, UniProt P17787+P43681); conditions: SH-EP1-hα4β2 cells; ref [8], [9]; cited from earlier work
[10] = target: LS α4β2-nAChR (Homo sapiens, UniProt P17787+P43681); conditions: relative to carbamylcholine; ref [8], [9]; cited from earlier work
[11] = target: rat α4β2 nAChR (Rattus norvegicus, UniProt P09483+P12390); type: binding; conditions: versus the N-H analogue
[12] = target: α4β2* endogenous receptors prepared from rat forebrain (Rattus norvegicus, UniProt P09483+P12390); assay: [3H]epibatidine binding competition, α4β2*; conditions: versus the N-H analogue

c1cncc(N2CCCNCC2)c1 [Compound 7, 1-(pyridin-3-yl)-1,4-diazepane]
efficacy relative to acetylcholine at HS α4β2-nAChR [1]: 41% | Ki [2]: 136 nM

COCC[C@H]1C[C@@H]1c1cncc(N2CCCNCC2)c1 [Compound 21, 1-[5-[(1S,2R)-2-(2-Methoxyethyl)cyclopropyl]pyridin-3-yl]-1,4-diazepane trifluoroacetate]
Agonism HS-α4β2 Efficacy [3]: 58–81% | total immobility time compared to control group (water) ([4]; acute PO 1 mg/kg): significantly decreased | total immobility time compared to control group (water) ([4]; acute PO 10 mg/kg): significantly decreased | SmartCube behavioral signature, extent of effect [5]: most prominent effects | SmartCube behavioral signature, 10 mg/kg compared to 5 mg/kg [5]: fairly similar behavioral signature

COCC[C@@H]1C[C@H]1c1cncc(N2C[C@@H]3C[C@H]2CN3)c1 [Compound 26, (1S,4S)-2-[5-[R,2S)-(2-(2-methoxyethyl)cyclopropyl]pyridin-3-yl]-2,5-diazabicyclo[2.2.1]heptane]
decline in binding affinities at β2-nAChRs [6]: ≥ 6 fold

COCC[C@@H]1C[C@H]1c1cncc(N2CCCNCC2)c1 [Compound 25, 1-[5-[(1R,2S)-2-(2-methoxyethyl)cyclopropyl]pyridin-3-yl]-1,4-diazepane]
Agonism HS-α4β2 Efficacy [3]: 58–81% | SmartCube behavioral signature, extent of effect [5]: most prominent effects | SmartCube behavioral signature, 10 mg/kg compared to 5 mg/kg [5]: marked increase

COCC[C@H]1C[C@@H]1c1cncc(N2C[C@@H]3C[C@H]2CN3)c1 [Compound 23, (1S,4S)-2-[5-[(1S,2R)-2-(2-methoxyethyl)cyclopropyl]pyridin-3-yl]-2,5-diazabicyclo[2.2.1]heptane]
decline in binding affinities at β2-nAChRs [6]: ≥ 6 fold

Clc1ccc(OC[C@H]2CCN2)cn1 [Compound 5]
stability in the presence of HCl or TFA following exposure to water [7]: dimerize to compound 6

OCCc1cc(-c2cncc(N3CCCNCC3)c2)on1 [Compound 30]
Agonism HS-α4β2 Efficacy [3]: 58–81% | SmartCube behavioral signature, extent of effect [5]: most prominent effects | SmartCube behavioral signature, 10 mg/kg compared to 5 mg/kg [5]: marked increase

c1cnc2cc3c(cc2n1)[C@@H]1CNC[C@H]3C1 [Compound 1, varenicline]
Agonism HS-α4β2 Efficacy [8]: 106 ± 5.9% | Inactivation Efficacy [9]: 83 ± 1.0% | Agonism LS-α4β2 Efficacy [10]: 34 ± 3.3%

COCC[C@H]1C[C@@H]1c1cncc(N2CCCN(C)CC2)c1 [Compound 22, 1-[5-[(1S,2R)-2-(2-methoxyethyl)cyclopropyl]pyridin-3-yl]-4-methyl-1,4-diazepane trifluoroacetate]
drop in binding affinity at α4β2 caused by N-methyl group [11]: more than 10 fold | drop in binding affinity at α4β2* caused by N-methyl group [12]: more than 10 fold
